# Source: ChEMBL document CHEMBL5528088, “Design and Synthesis of Cyclolipopeptide Mimics of Dysoxylactam A and Evaluation of the Reversing Potencies against P-Glycoprotein-Mediated Multidrug Resistance” (J Med Chem, 2024)
# Activity calls are given as the source filed them. The calls are words filed in the database; no cut-off is given here.
# What was measured:
# [1] = Inhibition of ADR uptake in human KBv200 cells assessed as ADR accumulation at 10 uM incubated for 10 mins by flow cytometry (reference value: 6.2 %); format: functional; design: scale not given: the % may be the effect or the level left
# NCI/ADR-RES [2] = test: Reversal fold, ratio of PTX IC50 to PTX IC50 in presence of test compound for reversal effect on P-gp-mediated multidrug resistance in human NCI/ADR-RES cells incubated for 72 hrs by SRB assay; format: functional
# [3] = Toxicity in Balb/cA nude mouse xenografted with human KBv200 cells assessed as change in body weight at 75 mg/kg, ip administered upto day 8 and measured for 14 days; format: organism-based; conditions: in vivo, 336 h, time 14 day
# [4] = AUC (infinity) in Sprague-Dawley rat at 30 mg/kg, po measured for 24 hrs by LC-MS analysis; format: ADME, organism-based; conditions: in vivo
# KBv200 [5] = test: Inhibition of Rho-123 uptake in human KBv200 cells at 10 uM incubated for 10 mins by flow cytometry; format: functional, cell-based
# [6] = AUC (infinity) in Sprague-Dawley rat at 1 mg/kg, iv measured for 24 hrs by LC-MS analysis; format: ADME, organism-based; conditions: in vivo
# [7] = Aqueous solubility of compound at neutral pH; format: physicochemical
# [8] = target: T1, Broad substrate specificity ATP-binding cassette transporter ABCG2 (Homo sapiens, UniProt Q9UNQ0); test: Inhibition of BCRP (unknown origin) expressed in HEK293 cells assessed as increase in mitoxantrone accumulation by flow cytometry; format: cell-based
# T1 sequence (Q9UNQ0 whole entry): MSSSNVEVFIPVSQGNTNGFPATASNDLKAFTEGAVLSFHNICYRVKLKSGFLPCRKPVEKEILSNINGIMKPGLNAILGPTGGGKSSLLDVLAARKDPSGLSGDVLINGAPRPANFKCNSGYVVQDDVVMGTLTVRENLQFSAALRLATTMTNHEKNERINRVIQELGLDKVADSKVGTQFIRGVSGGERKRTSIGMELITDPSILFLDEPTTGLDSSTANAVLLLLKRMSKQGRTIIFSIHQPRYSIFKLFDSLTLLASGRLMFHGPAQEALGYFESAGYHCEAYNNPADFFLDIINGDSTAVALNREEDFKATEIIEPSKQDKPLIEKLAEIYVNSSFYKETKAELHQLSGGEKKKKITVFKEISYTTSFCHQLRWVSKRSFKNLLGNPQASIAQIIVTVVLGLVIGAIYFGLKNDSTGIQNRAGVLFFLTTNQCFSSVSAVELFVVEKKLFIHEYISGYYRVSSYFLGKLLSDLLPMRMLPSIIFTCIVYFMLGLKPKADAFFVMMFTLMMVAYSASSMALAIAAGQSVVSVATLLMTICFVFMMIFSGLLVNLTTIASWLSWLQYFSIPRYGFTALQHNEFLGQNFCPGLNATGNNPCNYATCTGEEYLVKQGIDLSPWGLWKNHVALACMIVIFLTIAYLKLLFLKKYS
# [9] = Half life in Sprague-Dawley rat at 30 mg/kg, po measured for 24 hrs by LC-MS analysis; format: ADME, organism-based; conditions: in vivo
# [10] = Toxicity in Balb/cA nude mouse xenografted with human KBv200 cells assessed as animal mortality at 75 mg/kg, ip administered upto day 8 and measured for 14 days; format: organism-based; conditions: in vivo, 336 h, time 14 day
# [11] = Inhibition of ADR efflux in human KBv200 cells assessed as ADR accumulation at 1 uM incubated for 3 hrs by flow cytometry (reference value: 25.7 %); format: functional; design: scale not given: the % may be the effect or the level left
# KBv200 [12] = test: Reversal fold, ratio of VNR IC50 to VNR IC50 in presence of test compound for reversal effect on P-gp-mediated multidrug resistance in human KBv200 cells incubated for 72 hrs by SRB assay; format: functional
# NCI/ADR-RES [13] = test: Effect on P-gp level in human NCI/ADR-RES cells at 1 to 10 uM incubated for 24 hrs by Western blot analysis; format: functional, cell-based; conditions: dose 1-10 µM
# KBv200 [14] = test: Inhibition of calcein AM uptake in human KBv200 cells at 10 uM incubated for 10 mins by flow cytometry; format: functional, cell-based
# [15] = Lipophilicity, logD of compound at pH 7.4; format: physicochemical; conditions: buffer
# NCI/ADR-RES [16] = test: Reversal fold, ratio of ADR IC50 to ADR IC50 in presence of test compound for reversal effect on P-gp-mediated multidrug resistance in human NCI/ADR-RES cells incubated for 72 hrs by SRB assay; format: functional
# KBv200 [17] = test: Reversal fold, ratio of ADR IC50 to ADR IC50 in presence of test compound for reversal effect on P-gp-mediated multidrug resistance in human KBv200 cells incubated for 72 hrs by SRB assay; format: functional
# [18] = MRT (infinity) in Sprague-Dawley rat at 1 mg/kg, iv measured for 24 hrs by LC-MS analysis; format: ADME, organism-based; conditions: in vivo
# [19] = MRT (infinity) in Sprague-Dawley rat at 30 mg/kg, po measured for 24 hrs by LC-MS analysis; format: ADME, organism-based; conditions: in vivo
# [20] = target: Multidrug resistance-associated protein 1 (Homo sapiens, UniProt P33527); test: Inhibition of MRP1 (unknown origin) expressed in HEK293 cells assessed as increase in mitoxantrone accumulation by flow cytometry; format: cell-based
# Multidrug resistance-associated protein 1, sequence (P33527 whole entry): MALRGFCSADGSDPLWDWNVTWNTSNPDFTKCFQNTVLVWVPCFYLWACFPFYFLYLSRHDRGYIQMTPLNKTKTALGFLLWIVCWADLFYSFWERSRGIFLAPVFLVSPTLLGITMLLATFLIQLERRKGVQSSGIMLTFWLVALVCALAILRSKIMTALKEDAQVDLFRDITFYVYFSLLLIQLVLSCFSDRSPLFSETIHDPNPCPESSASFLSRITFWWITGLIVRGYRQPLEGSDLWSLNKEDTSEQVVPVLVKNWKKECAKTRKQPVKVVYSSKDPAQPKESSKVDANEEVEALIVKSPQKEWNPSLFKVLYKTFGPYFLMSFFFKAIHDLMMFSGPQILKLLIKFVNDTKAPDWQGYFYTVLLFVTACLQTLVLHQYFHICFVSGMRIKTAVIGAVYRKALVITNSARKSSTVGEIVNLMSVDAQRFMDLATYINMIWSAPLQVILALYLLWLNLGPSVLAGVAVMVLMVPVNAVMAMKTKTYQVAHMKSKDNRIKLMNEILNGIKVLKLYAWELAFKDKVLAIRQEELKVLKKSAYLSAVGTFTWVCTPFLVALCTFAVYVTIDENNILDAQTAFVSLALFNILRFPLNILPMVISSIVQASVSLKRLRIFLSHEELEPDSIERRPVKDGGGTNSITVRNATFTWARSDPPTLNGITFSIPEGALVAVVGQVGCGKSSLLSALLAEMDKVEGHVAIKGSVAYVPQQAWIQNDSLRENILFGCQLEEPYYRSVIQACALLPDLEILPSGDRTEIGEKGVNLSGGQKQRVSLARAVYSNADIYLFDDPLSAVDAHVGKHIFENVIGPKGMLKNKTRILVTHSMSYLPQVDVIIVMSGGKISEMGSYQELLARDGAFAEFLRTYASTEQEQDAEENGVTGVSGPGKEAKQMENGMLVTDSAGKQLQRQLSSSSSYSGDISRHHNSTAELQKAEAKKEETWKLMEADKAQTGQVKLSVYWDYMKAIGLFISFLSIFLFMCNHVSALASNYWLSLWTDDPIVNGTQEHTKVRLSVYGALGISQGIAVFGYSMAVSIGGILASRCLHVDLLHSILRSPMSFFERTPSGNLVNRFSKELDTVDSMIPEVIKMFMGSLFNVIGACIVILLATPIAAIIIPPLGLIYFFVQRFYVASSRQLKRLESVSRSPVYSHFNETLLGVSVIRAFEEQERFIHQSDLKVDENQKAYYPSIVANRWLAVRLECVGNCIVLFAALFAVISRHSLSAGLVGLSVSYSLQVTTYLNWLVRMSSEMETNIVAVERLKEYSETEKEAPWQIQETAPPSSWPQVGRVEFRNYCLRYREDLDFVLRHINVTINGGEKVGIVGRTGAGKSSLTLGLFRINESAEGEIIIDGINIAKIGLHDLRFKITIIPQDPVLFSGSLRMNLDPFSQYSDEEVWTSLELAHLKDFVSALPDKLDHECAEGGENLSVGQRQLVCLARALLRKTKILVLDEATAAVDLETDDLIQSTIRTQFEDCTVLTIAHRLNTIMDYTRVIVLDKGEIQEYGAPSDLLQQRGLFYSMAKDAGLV
# [21] = Inhibition of ADR uptake in human KBv200 cells assessed as ADR accumulation at 1 uM incubated for 10 mins by flow cytometry (reference value: 6.2 %); format: functional; design: scale not given: the % may be the effect or the level left
# [22] = Half life in Sprague-Dawley rat at 1 mg/kg, iv measured for 24 hrs by LC-MS analysis; format: ADME, organism-based; conditions: in vivo
# KBv200 [23] = test: Effect on P-gp level in human KBv200 cells at 1 to 10 uM incubated for 24 hrs by Western blot analysis; format: functional, cell-based; conditions: dose 1-10 µM
# KBv200 [24] = test: Antitumor activity against human KBv200 cells xenografted in Balb/cA nude mouse assessed as decrease in tumor size at 75 mg/kg, ip administered upto day 8 and measured for 14 days; format: functional, organism-based; conditions: time 14.0 day
# [25] = Oral bioavailability in Sprague-Dawley rat at 30 mg/kg measured for 24 hrs by LC-MS analysis; format: ADME, organism-based; conditions: in vivo
# KBv200 [26] = test: Inhibition of ADR uptake in human KBv200 cells at 10 uM incubated for 10 mins by fluorescence microscopy; format: functional, cell-based
# KBv200 [27] = test: Inhibition of ADR uptake in human KBv200 cells at 10 uM incubated for 10 mins by flow cytometry; format: functional, cell-based
# KBv200 [28] = test: Cytotoxicity against human KBv200 cells at 10 uM incubated for 72 hrs by SRB assay relative to control; format: functional
# KBv200 [29] = test: Antitumor activity against human KBv200 cells xenografted in Balb/cA nude mouse assessed as decrease in tumor volume at 75 mg/kg, ip administered upto day 8 and measured for 14 days in presence of VNR; format: functional, organism-based; conditions: time 14.0 day
# [30] = Inhibition of ADR efflux in human KBv200 cells assessed as ADR accumulation at 10 uM incubated for 3 hrs by flow cytometry (reference value: 25.7 %); format: functional; design: scale not given: the % may be the effect or the level left
# [31] = Tmax in Sprague-Dawley rat at 30 mg/kg, po measured for 24 hrs by LC-MS analysis; format: ADME, organism-based; conditions: in vivo
# KBv200 [32] = test: Inhibition of cell proliferation in human KBv200 cells assessed as inhibition of VNR at 10 uM incubated for 72 hrs in presence of VNR by SRB assay relative to control; format: functional
# [33] = AUClast in Sprague-Dawley rat at 1 mg/kg, iv measured for 24 hrs by LC-MS analysis; format: ADME, organism-based; conditions: in vivo
# KBv200 [34] = test: Reversal fold, ratio of PTX IC50 to PTX IC50 in presence of test compound for reversal effect on P-gp-mediated multidrug resistance in human KBv200 cells incubated for 72 hrs by SRB assay; format: functional
# [35] = Volume of distribution at steady state in Sprague-Dawley rat at 1 mg/kg, iv measured for 24 hrs by LC-MS analysis; format: ADME, organism-based; conditions: in vivo, read-out: Vdss
# NCI/ADR-RES [36] = test: Reversal fold, ratio of VNR IC50 to VNR IC50 in presence of test compound for reversal effect on P-gp-mediated multidrug resistance in human NCI/ADR-RES cells incubated for 72 hrs by SRB assay; format: functional
# [37] = Cmax in Sprague-Dawley rat at 30 mg/kg, po measured for 24 hrs by LC-MS analysis; format: ADME, organism-based; conditions: in vivo
# KBv200 [38] = test: Antitumor activity against human KBv200 cells xenografted in Balb/cA nude mouse assessed as decrease in tumor weight at 75 mg/kg, ip administered upto day 8 and measured for 14 days in presence of VNR; format: functional, organism-based; conditions: time 14.0 day
# KBv200 [39] = test: Inhibition of ADR efflux in human KBv200 cells incubated for 3 hrs by fluorescence microscopy; format: functional, cell-based
# KBv200 [40] = test: Effect on P-gp level in human KBv200 cells incubated for 24 hrs by qRT-PCR analysis; format: functional, cell-based
# [41] = AUClast in Sprague-Dawley rat at 30 mg/kg, po measured for 24 hrs by LC-MS analysis; format: ADME, organism-based; conditions: in vivo
# KBv200 [42] = test: Reversal fold, ratio of VNR IC50 to VNR IC50 in presence of test compound for human KBv200 cells incubated for 72 hrs by SRB assay; format: functional
compound,measurement,setting,value
CC(C)[C@@H]1NC(=O)CCCCCCCCCCCC(=O)N[C@@H](Cc2ccccc2)COC1=O,Activity,[1],86.4%
same,Ratio IC50,NCI/ADR-RES [2],159.9
same,Activity,[3],Non-Toxic
same,AUC(0-inf),[4],43.4 ng·h/mL
same,inhibition,KBv200 [5],Active
same,AUC,[6],1263 ng·h/mL
same,solubility,[7],0.64 µg/mL
same,inhibition (INH),[8],Active
same,half-life,[9],2.38 h
same,Activity,[10],Non-Toxic
same,Activity,[11],33.8%
same,Ratio IC50,KBv200 [12],102.4
same,Activity,NCI/ADR-RES [13],inactive
same,inhibition,KBv200 [14],Active
same,logD,[15],5
same,Ratio IC50,NCI/ADR-RES [16],33.9
same,Ratio IC50,KBv200 [17],12.1
same,MRT inf,[18],0.75 h
same,MRT inf,[19],3.11 h
same,inhibition (INH),[20],Active
same,Activity,[21],6.6%
same,half-life,[22],1.09 h
same,Activity,KBv200 [23],inactive
same,Activity,KBv200 [24],Active
same,bioavailability,[25],0.09%
same,inhibition,KBv200 [26],inactive
same,inhibition,KBv200 [27],inactive
same,Activity,KBv200 [28],2.7%
same,Activity,KBv200 [29],Active
same,Activity,[30],88.6%
same,Tmax,[31],0.25 h
same,inhibition at 10 µM,KBv200 [32],96.9%
same,AUC(0-t) at 24 h,[33],1260 ng·h/mL
same,Ratio IC50,KBv200 [34],49.6
same,Vd,[35],1.53 L/kg
same,Ratio IC50,NCI/ADR-RES [36],133.4
same,Cmax,[37],34.4 ng/mL
same,Activity,KBv200 [38],Active
same,inhibition,KBv200 [39],Active
same,Activity,KBv200 [40],inactive
same,AUC(0-t) at 24 h,[41],32.3 ng·h/mL
same,Ratio IC50,KBv200 [42],124
